In ChEMBL document CHEMBL4507291 (2021):

Key:
[1] = biological target: Serine/threonine-protein kinase pim-2 (Homo sapiens) (UniProt Q9P1W9)
[2] = biological target: Insulin receptor (Homo sapiens) (UniProt P06213)
[3] = biological target: Dual serine/threonine and tyrosine protein kinase (Homo sapiens) (UniProt Q6XUX3)
[4] = system: Hepatocyte growth factor receptor (Homo sapiens), P08581 [Y1235D]
[5] = biological target: Serine/threonine-protein kinase 33 (Homo sapiens) (UniProt Q9BYT3)
[6] = biological target: Vascular endothelial growth factor receptor 1 (Homo sapiens) (UniProt P17948)
[7] = biological target: T1, Dual specificity mitogen-activated protein kinase kinase 3 (Homo sapiens) (UniProt P46734)
T1 sequence (whole entry): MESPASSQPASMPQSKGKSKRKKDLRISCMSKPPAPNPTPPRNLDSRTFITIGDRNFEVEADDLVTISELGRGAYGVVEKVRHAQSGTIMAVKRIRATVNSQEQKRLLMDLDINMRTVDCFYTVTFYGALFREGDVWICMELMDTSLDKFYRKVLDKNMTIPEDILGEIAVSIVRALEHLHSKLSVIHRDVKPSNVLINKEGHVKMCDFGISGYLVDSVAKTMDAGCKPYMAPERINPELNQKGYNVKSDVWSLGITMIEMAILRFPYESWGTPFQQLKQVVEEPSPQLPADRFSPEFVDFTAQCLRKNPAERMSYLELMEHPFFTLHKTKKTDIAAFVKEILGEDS

[8] = biological target: Cyclin-dependent kinase 17 (Homo sapiens) (UniProt Q00537)
[9] = biological target: Platelet-derived growth factor receptor beta (Homo sapiens) (UniProt P09619)
[10] = biological target: T2, Serine/threonine-protein kinase BRSK1 (Homo sapiens) (UniProt Q8TDC3)
T2 sequence (whole entry): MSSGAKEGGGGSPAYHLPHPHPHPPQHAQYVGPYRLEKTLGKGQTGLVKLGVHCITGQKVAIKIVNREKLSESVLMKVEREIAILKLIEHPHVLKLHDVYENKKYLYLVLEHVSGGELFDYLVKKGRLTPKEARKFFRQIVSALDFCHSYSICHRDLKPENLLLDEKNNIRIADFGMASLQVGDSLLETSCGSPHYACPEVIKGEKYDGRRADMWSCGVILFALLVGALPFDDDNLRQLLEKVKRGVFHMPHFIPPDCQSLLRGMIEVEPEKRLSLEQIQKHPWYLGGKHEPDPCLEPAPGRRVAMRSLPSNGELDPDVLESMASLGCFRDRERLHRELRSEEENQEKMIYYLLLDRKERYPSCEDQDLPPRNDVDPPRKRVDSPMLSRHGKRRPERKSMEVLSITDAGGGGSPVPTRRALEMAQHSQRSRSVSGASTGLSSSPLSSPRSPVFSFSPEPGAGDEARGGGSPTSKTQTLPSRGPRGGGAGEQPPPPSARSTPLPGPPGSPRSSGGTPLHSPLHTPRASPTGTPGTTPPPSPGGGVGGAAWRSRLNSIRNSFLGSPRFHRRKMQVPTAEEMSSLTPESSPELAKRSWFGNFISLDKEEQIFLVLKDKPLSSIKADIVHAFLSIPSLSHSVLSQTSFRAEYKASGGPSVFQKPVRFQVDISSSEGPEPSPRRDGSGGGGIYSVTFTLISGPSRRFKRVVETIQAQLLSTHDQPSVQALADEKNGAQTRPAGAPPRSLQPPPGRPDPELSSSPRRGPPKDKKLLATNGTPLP

[11] = biological target: Myosin light chain kinase 2, skeletal/cardiac muscle (Homo sapiens) (UniProt Q9H1R3)
[12] = system: Receptor-type tyrosine-protein kinase FLT3 (Homo sapiens), P36888 [K663Q]
[13] = biological target: RAC-gamma serine/threonine-protein kinase (Homo sapiens) (UniProt Q9Y243)
[14] = biological target: T3, Aurora kinase A (Homo sapiens) (UniProt O14965)
T3 sequence (whole entry): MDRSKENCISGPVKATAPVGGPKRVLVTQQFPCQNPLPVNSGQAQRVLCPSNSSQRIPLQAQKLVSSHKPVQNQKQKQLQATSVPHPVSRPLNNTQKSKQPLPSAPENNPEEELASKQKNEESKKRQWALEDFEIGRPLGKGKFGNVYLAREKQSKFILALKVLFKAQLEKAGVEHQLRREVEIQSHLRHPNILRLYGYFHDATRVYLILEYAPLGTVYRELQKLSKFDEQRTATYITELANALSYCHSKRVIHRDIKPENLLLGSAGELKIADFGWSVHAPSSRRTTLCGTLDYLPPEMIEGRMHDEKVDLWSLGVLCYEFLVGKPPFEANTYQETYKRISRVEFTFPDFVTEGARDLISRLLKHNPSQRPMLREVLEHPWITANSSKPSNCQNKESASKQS

[15] = biological target: Ribosomal protein S6 kinase beta-1 (Homo sapiens) (UniProt P23443)
[16] = biological target: RAF proto-oncogene serine/threonine-protein kinase (Homo sapiens) (UniProt P04049)
[17] = biological target: Cyclin-dependent kinase 9 (Homo sapiens) (UniProt P50750)
[18] = biological target: Mitogen-activated protein kinase kinase kinase 11 (Homo sapiens) (UniProt Q16584)
[19] = biological target: Macrophage colony-stimulating factor 1 receptor (Homo sapiens) (UniProt P07333)
[20] = biological target: TGF-beta receptor type-2 (Homo sapiens) (UniProt P37173)
[21] = biological target: Serine/threonine-protein kinase Nek10 (Homo sapiens) (UniProt Q6ZWH5)
[22] = biological target: Non-receptor tyrosine-protein kinase TNK1 (Homo sapiens) (UniProt Q13470)
[23] = biological target: Beta-2 adrenergic receptor (Homo sapiens) (UniProt P07550); details: Compound concentration 10.0 uM
[24] = biological target: Mitogen-activated protein kinase 3 (Homo sapiens) (UniProt P27361)
[25] = biological target: Serine/threonine-protein kinase RIO3 (Homo sapiens) (UniProt O14730)
[26] = Compound concentration 1000.0 nM
[27] = Compound concentration 100.0 nM

Mitogen-activated protein kinase 3 (Homo sapiens), sequence (P27361 whole entry): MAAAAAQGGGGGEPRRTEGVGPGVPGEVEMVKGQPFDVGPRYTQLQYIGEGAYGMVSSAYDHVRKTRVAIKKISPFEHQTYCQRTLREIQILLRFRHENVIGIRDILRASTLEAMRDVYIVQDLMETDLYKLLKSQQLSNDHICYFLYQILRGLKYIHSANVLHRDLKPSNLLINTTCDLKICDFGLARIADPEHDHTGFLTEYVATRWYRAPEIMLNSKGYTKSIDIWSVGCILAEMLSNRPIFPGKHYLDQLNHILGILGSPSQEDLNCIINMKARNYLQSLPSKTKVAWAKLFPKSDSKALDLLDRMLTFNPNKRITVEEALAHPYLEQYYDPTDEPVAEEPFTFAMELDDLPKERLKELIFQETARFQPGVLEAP
Myosin light chain kinase 2, skeletal/cardiac muscle (Homo sapiens), sequence (Q9H1R3 whole entry): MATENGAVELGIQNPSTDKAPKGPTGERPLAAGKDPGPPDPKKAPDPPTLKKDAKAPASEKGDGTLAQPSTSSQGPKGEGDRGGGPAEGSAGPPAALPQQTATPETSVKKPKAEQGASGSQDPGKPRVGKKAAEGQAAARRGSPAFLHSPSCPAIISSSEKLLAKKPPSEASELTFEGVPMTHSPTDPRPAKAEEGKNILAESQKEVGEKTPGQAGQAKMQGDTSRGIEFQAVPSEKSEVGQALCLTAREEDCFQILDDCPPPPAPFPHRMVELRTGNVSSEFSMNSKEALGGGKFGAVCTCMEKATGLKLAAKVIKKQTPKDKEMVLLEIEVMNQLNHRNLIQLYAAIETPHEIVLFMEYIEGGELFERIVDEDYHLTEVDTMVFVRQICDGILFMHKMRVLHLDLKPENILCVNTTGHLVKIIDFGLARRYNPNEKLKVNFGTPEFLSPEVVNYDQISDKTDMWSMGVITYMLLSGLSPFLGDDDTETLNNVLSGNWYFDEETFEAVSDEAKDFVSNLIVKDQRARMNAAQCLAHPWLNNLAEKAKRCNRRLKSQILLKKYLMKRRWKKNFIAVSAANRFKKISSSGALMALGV
Serine/threonine-protein kinase 33 (Homo sapiens), sequence (Q9BYT3 whole entry, looked up): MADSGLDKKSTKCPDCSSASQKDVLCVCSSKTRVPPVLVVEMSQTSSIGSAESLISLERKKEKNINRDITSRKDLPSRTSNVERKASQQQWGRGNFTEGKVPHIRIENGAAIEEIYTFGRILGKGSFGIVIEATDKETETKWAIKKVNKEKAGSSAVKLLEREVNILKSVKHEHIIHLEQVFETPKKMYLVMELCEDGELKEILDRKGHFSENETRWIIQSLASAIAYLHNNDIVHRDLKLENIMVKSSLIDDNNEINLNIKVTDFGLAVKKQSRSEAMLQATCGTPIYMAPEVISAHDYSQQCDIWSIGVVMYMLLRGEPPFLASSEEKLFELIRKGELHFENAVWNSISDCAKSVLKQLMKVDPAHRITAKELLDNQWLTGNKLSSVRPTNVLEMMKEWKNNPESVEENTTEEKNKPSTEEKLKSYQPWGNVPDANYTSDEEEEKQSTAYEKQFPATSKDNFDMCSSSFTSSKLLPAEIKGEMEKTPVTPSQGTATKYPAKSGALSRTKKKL
TGF-beta receptor type-2 (Homo sapiens), sequence (P37173 whole entry): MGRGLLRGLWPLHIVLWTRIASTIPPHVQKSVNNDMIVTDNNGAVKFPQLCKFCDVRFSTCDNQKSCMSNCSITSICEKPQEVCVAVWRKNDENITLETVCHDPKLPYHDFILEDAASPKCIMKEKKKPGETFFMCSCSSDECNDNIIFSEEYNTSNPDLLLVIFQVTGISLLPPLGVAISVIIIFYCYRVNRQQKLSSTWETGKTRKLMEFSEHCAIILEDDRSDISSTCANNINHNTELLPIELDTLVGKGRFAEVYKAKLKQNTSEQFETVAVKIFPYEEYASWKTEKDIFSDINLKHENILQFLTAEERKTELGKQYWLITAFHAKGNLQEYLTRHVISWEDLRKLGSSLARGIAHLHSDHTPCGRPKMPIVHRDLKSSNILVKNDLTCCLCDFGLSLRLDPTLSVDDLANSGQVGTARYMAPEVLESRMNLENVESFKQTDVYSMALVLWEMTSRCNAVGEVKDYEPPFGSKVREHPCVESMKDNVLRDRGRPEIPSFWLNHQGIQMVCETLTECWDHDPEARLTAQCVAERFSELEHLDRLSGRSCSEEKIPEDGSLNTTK
Macrophage colony-stimulating factor 1 receptor (Homo sapiens), sequence (P07333 whole entry): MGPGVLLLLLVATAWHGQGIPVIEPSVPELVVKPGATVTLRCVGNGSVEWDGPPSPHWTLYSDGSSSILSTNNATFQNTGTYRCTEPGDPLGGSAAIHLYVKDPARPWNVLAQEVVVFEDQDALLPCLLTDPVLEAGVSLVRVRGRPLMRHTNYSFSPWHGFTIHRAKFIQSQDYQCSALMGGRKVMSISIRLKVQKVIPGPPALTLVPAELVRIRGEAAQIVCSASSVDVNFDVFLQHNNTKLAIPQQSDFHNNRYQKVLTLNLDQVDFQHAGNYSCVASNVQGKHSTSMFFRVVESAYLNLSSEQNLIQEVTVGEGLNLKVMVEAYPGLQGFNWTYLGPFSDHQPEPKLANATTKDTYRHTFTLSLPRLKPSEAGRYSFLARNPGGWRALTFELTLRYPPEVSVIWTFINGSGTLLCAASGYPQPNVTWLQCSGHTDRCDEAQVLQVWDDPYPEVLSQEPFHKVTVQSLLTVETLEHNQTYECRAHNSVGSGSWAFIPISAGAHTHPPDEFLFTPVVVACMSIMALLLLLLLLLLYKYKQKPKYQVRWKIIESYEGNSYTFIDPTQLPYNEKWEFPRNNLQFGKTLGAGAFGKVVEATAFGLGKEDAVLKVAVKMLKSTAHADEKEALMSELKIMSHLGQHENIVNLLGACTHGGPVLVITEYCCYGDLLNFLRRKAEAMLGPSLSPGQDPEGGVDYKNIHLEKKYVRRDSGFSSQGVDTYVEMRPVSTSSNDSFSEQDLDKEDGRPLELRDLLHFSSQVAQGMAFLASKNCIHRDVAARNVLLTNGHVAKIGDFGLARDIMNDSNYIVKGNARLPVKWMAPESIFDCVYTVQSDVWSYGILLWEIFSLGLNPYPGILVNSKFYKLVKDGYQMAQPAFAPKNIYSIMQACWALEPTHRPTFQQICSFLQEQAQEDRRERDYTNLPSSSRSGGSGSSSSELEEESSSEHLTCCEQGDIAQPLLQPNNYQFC
Mitogen-activated protein kinase kinase kinase 11 (Homo sapiens), sequence (Q16584 whole entry, looked up): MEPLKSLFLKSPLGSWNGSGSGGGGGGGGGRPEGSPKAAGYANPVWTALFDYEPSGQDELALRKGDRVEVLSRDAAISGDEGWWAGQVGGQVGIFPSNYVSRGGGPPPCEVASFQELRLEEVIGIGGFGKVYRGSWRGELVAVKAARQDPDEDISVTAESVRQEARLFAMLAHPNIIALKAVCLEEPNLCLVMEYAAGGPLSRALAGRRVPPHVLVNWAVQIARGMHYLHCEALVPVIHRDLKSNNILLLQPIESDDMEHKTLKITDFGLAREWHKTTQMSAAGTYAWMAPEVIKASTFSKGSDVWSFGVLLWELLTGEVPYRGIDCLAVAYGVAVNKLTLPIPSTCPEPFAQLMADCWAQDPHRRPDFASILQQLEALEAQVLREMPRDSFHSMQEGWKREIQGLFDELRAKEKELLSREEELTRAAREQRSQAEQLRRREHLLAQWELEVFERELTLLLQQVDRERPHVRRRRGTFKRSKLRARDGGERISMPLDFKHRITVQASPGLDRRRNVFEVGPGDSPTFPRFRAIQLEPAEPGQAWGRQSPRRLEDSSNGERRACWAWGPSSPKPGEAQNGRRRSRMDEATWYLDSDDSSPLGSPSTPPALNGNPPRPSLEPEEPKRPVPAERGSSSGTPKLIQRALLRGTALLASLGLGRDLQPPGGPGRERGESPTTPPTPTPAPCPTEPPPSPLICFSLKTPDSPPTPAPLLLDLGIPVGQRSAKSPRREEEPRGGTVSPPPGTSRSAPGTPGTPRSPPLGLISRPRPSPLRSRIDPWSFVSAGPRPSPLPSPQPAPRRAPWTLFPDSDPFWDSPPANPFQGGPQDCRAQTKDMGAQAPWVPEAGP
Non-receptor tyrosine-protein kinase TNK1 (Homo sapiens), sequence (Q13470 whole entry): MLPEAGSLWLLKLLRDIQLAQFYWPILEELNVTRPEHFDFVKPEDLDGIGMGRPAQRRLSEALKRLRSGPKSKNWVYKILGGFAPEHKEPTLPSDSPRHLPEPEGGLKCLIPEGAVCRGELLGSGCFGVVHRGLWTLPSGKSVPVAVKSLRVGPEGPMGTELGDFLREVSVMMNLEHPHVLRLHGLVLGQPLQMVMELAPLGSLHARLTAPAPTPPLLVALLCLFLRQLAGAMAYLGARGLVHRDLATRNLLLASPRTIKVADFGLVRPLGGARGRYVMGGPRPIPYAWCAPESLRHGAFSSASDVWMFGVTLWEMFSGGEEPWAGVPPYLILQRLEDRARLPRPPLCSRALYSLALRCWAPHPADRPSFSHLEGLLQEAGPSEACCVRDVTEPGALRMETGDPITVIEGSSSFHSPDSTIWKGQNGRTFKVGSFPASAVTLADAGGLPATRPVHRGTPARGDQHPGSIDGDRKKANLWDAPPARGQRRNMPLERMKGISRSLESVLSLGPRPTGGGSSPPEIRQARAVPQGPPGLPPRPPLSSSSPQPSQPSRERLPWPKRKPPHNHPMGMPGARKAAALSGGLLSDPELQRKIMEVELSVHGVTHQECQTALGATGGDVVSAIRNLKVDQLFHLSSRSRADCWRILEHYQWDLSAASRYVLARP
Serine/threonine-protein kinase pim-2 (Homo sapiens), sequence (Q9P1W9 whole entry, looked up): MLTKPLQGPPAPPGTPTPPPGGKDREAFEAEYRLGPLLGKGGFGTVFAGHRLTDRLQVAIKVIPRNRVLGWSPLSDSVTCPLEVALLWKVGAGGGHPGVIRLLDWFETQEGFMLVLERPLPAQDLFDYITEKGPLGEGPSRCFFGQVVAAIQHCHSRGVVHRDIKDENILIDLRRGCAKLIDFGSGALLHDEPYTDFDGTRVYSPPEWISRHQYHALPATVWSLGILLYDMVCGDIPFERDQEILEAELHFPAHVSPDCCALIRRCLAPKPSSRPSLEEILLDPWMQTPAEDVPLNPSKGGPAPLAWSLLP

C[C@@H]1CN(c2cc(-c3nn(C)c4ccc(OC5(C)CC5)cc34)ncn2)C[C@H](C)O1 [MLi-2-NC]
inactive: residual activity [1, 26] 100% | residual activity [2, 26] 100% | residual activity [3, 26] 67% | residual activity [4, 26] 87% | residual activity [5, 26] 86% | residual activity [6, 26] 95% | residual activity [7, 26] 70% | residual activity [8, 26] 88% | residual activity [9, 26] 100% | residual activity [10, 26] 97% | residual activity [11, 26] 87% | residual activity [12, 26] 100% | residual activity [13, 26] 100% | residual activity [14, 26] 100% | residual activity [15, 26] 100% | residual activity [16, 26] 100% | residual activity [17, 26] 84% | residual activity [18, 26] 100% | residual activity [19, 26] 55% | residual activity [20, 26] 73% | residual activity [21, 26] 89% | residual activity [22, 26] 95% | inhibition [23] 13.8% | residual activity [24, 26] 100% | residual activity [25, 26] 100%

C[C@@H]1CN(c2cc(-c3n[nH]c4ccc(OC5(C)CC5)cc34)ncn2)C[C@H](C)O1 [MLi-2]
inactive: residual activity [1, 27] 88% | residual activity [2, 27] 100% | residual activity [3, 27] 77% | residual activity [4, 27] 92% | residual activity [5, 27] 86% | residual activity [6, 27] 100% | residual activity [7, 27] 71% | residual activity [8, 27] 89% | residual activity [9, 27] 73% | residual activity [10, 27] 96% | residual activity [11, 27] 91% | residual activity [12, 27] 100% | residual activity [13, 27] 86% | residual activity [14, 27] 94% | residual activity [15, 27] 73% | residual activity [16, 27] 100% | residual activity [17, 27] 80% | residual activity [18, 27] 100% | residual activity [19, 27] 84% | residual activity [20, 27] 100% | residual activity [21, 27] 69% | residual activity [22, 27] 76% | inhibition [23] 26.4% | residual activity [24, 27] 87% | residual activity [25, 27] 100%
